Data set [1] concerns Cyclic AMP Accumulation in Intact Cells: Melatonin. The data set can be described thus: Functional activity: cyclic AMP accumulation in intact cells (forskolin-stimulated). Type of data set: cell-based. Conditions: 10 min, read-out: I.A. (Intrinsic Activity) = Emax (experimental compound)/Emax (melatonin). The method, then: Measurement of Functional Activity
Cyclic AMP Accumulation in Intact Cells: Melatonin
The media was removed from cell flask and washed with Hank's salt solution or PBS, as appropriate. The cells were detached from flask. Enough media was added so that the concentration of cells is 4×10^5 /ml when counted with a hemocytometer. Dialyzed or heat inactivated fetal bovine serum (FBS) was used in the media when plating the cells. 1 ml of cell suspension was put into each well, then 2 mls of media. Cells were incubated overnight.
1. Stock solution: plain media (no serum or additives)+20 mM HEPES.
2. IBMX solution: media/HEPES+1 mM IBMX.
3. Assay solution: 90% stock solution+10% IBMX solution.
Each well gets 3 mls of assay solution for preincubation and 3 mls for the assay. Each test condition is done in triplicate.
a) Basal assay solution+DMSO
b) Forskolin stimulation: 10 μM final concentration.
All tests were done in triplicate at 37° C. Plates with cells were kept in a shallow 37° C. water bath throughout the reaction. Media was taken from the wells and 3 ml of preincubation media was added. After 10 min, that solution was removed and 3 mls of drug solution was added. After 10 min, the media was removed and reaction stopped with HCl. Samples set for at least an hour at room temperature. 1 ml from each dish was taken and put into a microfuge tube and spun to remove floating cells. After dilution to 1:100 for RIA, a radioimmuno-assay was done.

The next data set concerns the target T1, human ML1A (Homo sapiens, UniProt P48039).
T1 construct: expressed in transfected cells; pcDNA3; membrane homogenates
The data set can be described thus: Melatonergic binding (2-[125I]-iodomelatonin displacement, NIH 3T3 cell membranes). As to conditions: human ML1A in NIH 3T3 membranes; 100 pM 2-[125I]-iodomelatonin; 37° C., 1 hour; read-out: Binding Affinity (IC50). The method, then: Measurement of Melatonergic Binding
(a) 50 mM Tris buffer containing 12.5 mM MgCl2 and 2 mM EDTA (pH 7.4 at 37° C.).
(b) Wash buffer: 20 mM Tris base containing 2 mM MgCl2 (pH 7.4 at room temperature).
(d) 2-[^125 I]-iodomelatonin (100 pM final concn.). Source: NEN
2.Membrane preparation. The receptor cDNA (human ML1A) was subcloned into pcDNA3 and introduced into NIH 3T3 cells using Lipofectamine. Transformed NIH 3T3 cells resistant to geneticin were isolated and single colonies expressing high levels of 2-[^125 I]-iodomelatonin binding were isolated and characterized. Cell pellets were frozen at -80° C. for further use. For preparing membrane homogenates, pellets are thawed on ice, and resuspended in TME buffer, Tris base, MgCl2, EDTA (pH 7.4 at 37° C.), supplemented with aprotinin, leupeptin, and phenylmethlysulfonylfluoride. The cells were then homogenized using a dounce homogenizer, and centrifuged. The resulting pellet was resuspended with a dounce homogenizer in TME and frozen. On the day of assay, the small aliquot was thawed on ice and resuspended in TME buffer.
3. Incubation: 37° C. for 1 hour. Reaction is terminated by filtration.
The procedure was based on that disclosed in: Reppert, S. M., Weaver, D. R., and Ebisawa, R. (1994), Neuron, 13, 1177-1185 (1994).

The conditions of data set [2]: in words; cited from earlier work.
Data set [3] relates to jet-lag related sleep disturbances. As to conditions: humans; in words; cited from earlier work.
The subject of another data set is circadian rhythms. Conditions: rats; in words; cited from earlier work.

The structures appear in SMILES notation.

T1 sequence (P48039 whole entry): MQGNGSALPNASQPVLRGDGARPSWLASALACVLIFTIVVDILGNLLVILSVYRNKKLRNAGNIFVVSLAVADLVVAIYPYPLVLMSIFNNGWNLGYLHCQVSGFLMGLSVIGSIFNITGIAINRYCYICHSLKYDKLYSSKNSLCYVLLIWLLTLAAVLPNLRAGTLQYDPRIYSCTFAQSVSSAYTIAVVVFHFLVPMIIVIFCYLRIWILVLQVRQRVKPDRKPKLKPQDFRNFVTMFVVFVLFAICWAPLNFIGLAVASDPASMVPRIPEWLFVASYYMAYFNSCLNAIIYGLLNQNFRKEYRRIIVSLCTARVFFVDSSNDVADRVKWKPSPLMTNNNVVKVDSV

With `CCCC(=O)NCCC1c2cc(OC)ccc2-c2ccc(OC)cc21` [Example 10, N-[2-(2,7-dimethoxyfluoren-9-yl)ethyl]butanamide], the Emax in data set [1] was 115%.
Consider `CCOc1ccc2c(c1)C(CCNC(=O)CC)c1cc(OC)ccc1-2` (centres unmarked) [Example 29, N-[2-(2-ethoxy-7-methoxyfluoren-9-yl)-ethyl]propanamide], for which the IC50 – broadly, the midpoint of a concentration-inhibition curve – at human ML1A was under 100 nM.
The same measure, in the same setting: with `COc1ccc2c(c1)C(CCNC(=O)C1CCC1)c1cc(OC)ccc1-2` [Example 13, N-[2-(2,7-dimethoxyfluoren-9-yl)ethyl]cyclobutane carboxamide] the figure was under 10 nM.
In the case of `COc1ccc2[nH]cc(CCNC(C)=O)c2c1` [melatonin, N-acetyl-5-methoxytryptamine], in data set [2], the oral bioavailability result is “often low and variable”. Also, the “treatment of jet-lag related sleep disturbances” value in data set [3] is listed as “used to treat jet-lag related sleep disturbances”. For the same compound, the “effect of exogenous administration on circadian rhythms” value in the data set with circadian rhythms was “synchronize circadian rhythms in rats”.
On to `CCCC(=O)NCCC1c2ccccc2-c2ccc(OC)cc21` (centres unmarked) [Example 6, N-[2-(2-methoxyfluoren-9-yl)ethyl]butanamide], for which the IC50 on human ML1A was under 100 nM.
With `COc1ccc2c(c1)C(CCNC(=O)C1CC1)c1cc(OC)ccc1-2` [Example 7, N-[2-(2,7-dimethoxyfluoren-9-yl)ethyl]cyclopropane carboxamide], the Emax in data set [1] is 102%.
`CCC(=O)NCCC1c2cc(OC)ccc2-c2ccc(OC)cc21` [Example 5, N-[2-(2,7-dimethoxyfluoren-9-yl)ethyl]propanamide]: the IC50 on human ML1A was under 10 nM. Further, the Emax in data set [1] was 114%.
With `COc1ccc2c(c1)C(CCNC(=O)C(C)(C)C)c1cc(OC)ccc1-2` [Example 14, N-[2-(2,7-dimethoxyfluoren-9-yl)ethyl]-2,2-dimethyl propanamide], at human ML1A, the IC50 is under 500 nM.
On the same count and under the same terms, with `COCC(=O)NCCC1c2cc(OC)ccc2-c2ccc(OC)cc21` [Example 9, N-[2-(2,7-dimethoxyfluoren-9-yl)ethyl]methoxyacetamide] the figure was under 100 nM; with `C=CC(=O)NCCC1c2ccccc2-c2ccc(OC)cc21` (centres unmarked) [Example 11, N-[2-(2-methoxyfluoren-9-yl)ethyl]-2-propenamide], under 100 nM.
Same read-out and setting: with `COc1ccc2c(c1)C(CCCNC(C)=O)c1cc(OC)ccc1-2` [Example 20, N-[3-(2,7-dimethoxyfluoren-9-yl)prop-1-yl]acetamide] the figure was under 100 nM.

The values above are taken from patent publication US5736578A, “Ethylamido fluorenes and improved method of making same” (Bristol-Myers Squibb Company, priority 1996, dated 1998).
